In brackets after ≈: the same amount, converted by molar mass.
Columns and labels:
[1] = test system: Human Epidermoid Tumors (A431); experiment: In Vivo Inhibition of the Growth of Human Epidermoid Tumors (A431) in mice; settings: days 1 through 10
[2] = target: T1, His-tagged cytoplasmic domain of EGFR (Homo sapiens, UniProt P00533); experiment: Inhibition of Epidermal Growth Factor Receptor Kinase (EGF-R) using recombinant enzyme, RR-SRC peptide phosphorylation; assay type: biochemical; settings: recombinant enzyme; average of the number of tests; read-out: IC50
T1 construct: containing the EGFR cDNA encoding amino acids 645 - 1186 preceded by Met-Ala-(His)6; Met-Ala-(His)6 (N); made in house; host or cells: Sf9 insect cells, recombinant baculovirus vHcEGFR52
Protocol: The enzyme used in this assay is the His-tagged cytoplasmic domain of EGFR. […] Sf9 cells in 100 mm plates were infected at an moi of 10 pfu/cell and cells were harvested 48 h post infection. A cytoplasmic extract was prepared using 1% Triton X-100 and applied to Ni-NTA column. After washing the column with 20 mM imidazole, HcEGFR was eluted with 250 mM imidazole (in 50 mM Na2HPO4, pH 8.0, 300 mM NaCl). Fractions collected were dialyzed against 10 mM HEPES, pH 7.0, 50 mM NaCl, 10% glycerol, 1ug/mL antipain and leupeptin and 0. 1 mM Pefabloc SC. The protein was frozen in dry ice/methanol and stored -70°C.
For the enzyme reaction, 10 uL of each inhibitor (at various concentrations) were added to each well of a 96-well plate. To this was added 3 uL of enzyme (1: 10 dilution in 10mM HEPES, pH 7.4 for final conc. of 1:120). This was allowed to sit for 10 min on ice and was followed by the addition of 5 ul peptide (80 uM final conc.), 10ul of 4X Buffer (Table A), 0.25 uL ^33P-ATP and 12 uL H2O. The reaction was allowed to run for 90 min at room temperature and was followed by spotting the entire volume on to precut P81 filter papers. The filter discs were washed 2X with 0.5% phosphoric acid and radioactivity was measured using a liquid scintillation counter.

[3] = test system: Human Epidermoid Tumors (A431); experiment: In Vivo Inhibition of the Growth of Human Epidermoid Tumors (A431) in mice
Protocol: BALB/c nu/nu female mice (Charles River, Wilmington, MA) were used in the in vivo standard pharmacological test procedures. Human epidermoid carcinoma cells A-431 (American Type Culture Collection, Rockville, Maryland # CRL-155) were grown in vitro as described above. A unit of 5 X 10^6 cells were injected SC into mice. When tumors attained a mass of between 100 and 150 mg, the mice were randomized into treatment groups (day zero). Mice were treated iP or PO once a day either on days 1, 5, and 9 or on days 1 through 10 post staging with doses of either 80, 40 or 20, or 10 mg/kg/dose of the compound to be evaluated in 0.2% Klucel. Control animals received no drug. Tumor mass was determined every 7 days [(length X width^2)/2) for 28 days post staging. Relative tumor growth (Mean tumor mass on day 7, 14, 21, and 28 divided by the mean tumor mass on day zero) is determined for each treatment group. The %T/C (Tumor/Control) is determined by dividing the relative tumor growth of the treated group by the relative tumor growth of the placebo group and multiplying by 100. A compound is considered to be active if the %T/C is found to be […].

MCF7 = experiment: Inhibition of Cancer Cell Growth (Sulforhodamine B); assay type: cell-based, Human; settings: Homo sapiens, 48 hours exposure, read-out: Inhibition of Cancer Cell Growth as Measured by Cell Number (IC50) MCF7
Protocol: (§1) After 48 hours exposure to test compounds, cells were fixed with trichloroacetic acid, and stained with Sulforhodamine B. After washing with trichloroacetic acid, bound dye was solubilized in 10 mM Tris base and optical density was determined using plate reader. Under conditions of the assay the optical density is proportional to the number of cells in the well. […] The test procedure is described in details by Philip Skehan et. al. J.Natl. Canc. […]

A2780DDP = experiment: as above; assay type: cell-based, Human; settings: Homo sapiens, 48 hours exposure, read-out: Inhibition of Cancer Cell Growth as Measured by Cell Number (IC50) A2780DDP
Protocol: as §1

SW620 = experiment: as above; assay type: cell-based, Human; settings: Homo sapiens, SW-620, 48 hours exposure, read-out: Inhibition of Cancer Cell Growth as Measured by Cell Number (IC50) SW620
Protocol: as §1

A431 = experiment: as above; assay type: cell-based, Human; settings: Homo sapiens, A-431, 48 hours exposure, read-out: Inhibition of Cancer Cell Growth as Measured by Cell Number (IC50) A431
Protocol: as §1

A2780S = experiment: as above; assay type: cell-based, Human; settings: Homo sapiens, 48 hours exposure, read-out: Inhibition of Cancer Cell Growth as Measured by Cell Number (IC50) A2780S
Protocol: as §1

LOX = experiment: as above; assay type: cell-based, Human; settings: Homo sapiens, 48 hours exposure, read-out: Inhibition of Cancer Cell Growth as Measured by Cell Number (IC50) LOX
Protocol: as §1

MB435 = experiment: as above; assay type: cell-based, Human; settings: Homo sapiens, 48 hours exposure, read-out: Inhibition of Cancer Cell Growth as Measured by Cell Number (IC50) MB435
Protocol: as §1

SKBR3 = experiment: as above; assay type: cell-based, Human; settings: Homo sapiens, SK-BR-3, 48 hours exposure, read-out: Inhibition of Cancer Cell Growth as Measured by Cell Number (IC50) SKBR3
Protocol: as §1

[4] = target: epidermal growth factor receptor kinase (Homo sapiens, UniProt P00533); experiment: Inhibition of Epidermal Growth Factor Receptor Kinase (EGF-R), cell membrane preparation (A431 membrane extract), RR-SRC peptide phosphorylation; settings: average of the number of tests
epidermal growth factor receptor kinase, sequence (P00533 25-1210): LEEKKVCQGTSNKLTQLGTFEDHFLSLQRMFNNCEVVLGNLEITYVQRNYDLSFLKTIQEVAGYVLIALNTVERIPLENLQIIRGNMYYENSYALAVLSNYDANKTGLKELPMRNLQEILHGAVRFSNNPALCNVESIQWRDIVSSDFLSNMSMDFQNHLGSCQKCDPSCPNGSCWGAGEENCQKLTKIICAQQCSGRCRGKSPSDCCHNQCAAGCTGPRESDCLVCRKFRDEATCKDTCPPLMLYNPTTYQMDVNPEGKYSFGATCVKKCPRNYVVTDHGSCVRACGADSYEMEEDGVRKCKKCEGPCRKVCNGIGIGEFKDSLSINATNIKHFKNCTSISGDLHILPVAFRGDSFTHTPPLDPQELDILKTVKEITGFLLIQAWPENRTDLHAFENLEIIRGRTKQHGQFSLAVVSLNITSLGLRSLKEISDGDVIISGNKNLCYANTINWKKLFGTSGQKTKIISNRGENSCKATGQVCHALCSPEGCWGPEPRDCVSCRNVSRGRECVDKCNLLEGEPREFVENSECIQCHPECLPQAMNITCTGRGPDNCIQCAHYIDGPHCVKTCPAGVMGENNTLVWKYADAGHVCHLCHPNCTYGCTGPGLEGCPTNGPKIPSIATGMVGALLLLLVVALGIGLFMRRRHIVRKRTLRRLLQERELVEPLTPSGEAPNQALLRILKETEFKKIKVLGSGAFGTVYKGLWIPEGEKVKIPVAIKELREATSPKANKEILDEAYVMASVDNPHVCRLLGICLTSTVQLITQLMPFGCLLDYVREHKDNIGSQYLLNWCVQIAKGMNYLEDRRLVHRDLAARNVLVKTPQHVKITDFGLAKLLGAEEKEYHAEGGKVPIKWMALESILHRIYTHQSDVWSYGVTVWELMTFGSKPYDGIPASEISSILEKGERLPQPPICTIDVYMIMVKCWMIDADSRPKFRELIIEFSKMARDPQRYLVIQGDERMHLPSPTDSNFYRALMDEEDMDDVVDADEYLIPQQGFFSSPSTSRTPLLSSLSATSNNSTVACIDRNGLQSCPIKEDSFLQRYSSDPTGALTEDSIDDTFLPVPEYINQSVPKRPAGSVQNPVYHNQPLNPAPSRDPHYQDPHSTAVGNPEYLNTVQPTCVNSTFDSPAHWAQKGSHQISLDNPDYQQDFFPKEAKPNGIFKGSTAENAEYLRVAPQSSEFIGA
Protocol: Test compounds were evaluated for their ability to inhibit the phosphorylation of the tyrosine residue of a peptide substrate catalyzed by the enzyme epidermal growth factor receptor kinase. […] The enzyme was obtained as a membrane extract of A431 cells (American Type Culture Collection, Rockville, MD). A431 cells were grown in T175 flasks to 80% confluency. The cells were washed twice with phosphate buffered saline (PBS) without Ca^2+. Flasks were rotated for 1.5 hours in 20 mL PBS with 1.0 mM ethylenediaminetetraacetic acid (EDTA) at room temperature and centrifuged at 600g for 10 minutes. […]
An aliquot of the A431 membrane extract (10 mg/mL) was diluted in 30 mM HEPES (pH 7.4) to give a protein concentration of 50 ug/mL. […] The % inhibition of the test compound was determined for at least three different concentrations and the IC50 value was evaluated from the dose response curve. […] CPM(control) is in units of counts per minute and was a number expressing the amount of radiolabled ATP (γ-^33P) incorporated onto the RR-SRC peptide substrate by the enzyme after 30 minutes at 30°C in the absence of test compound as measured by liquid scintillation counting. […]

T1 sequence (P00533 669-1210): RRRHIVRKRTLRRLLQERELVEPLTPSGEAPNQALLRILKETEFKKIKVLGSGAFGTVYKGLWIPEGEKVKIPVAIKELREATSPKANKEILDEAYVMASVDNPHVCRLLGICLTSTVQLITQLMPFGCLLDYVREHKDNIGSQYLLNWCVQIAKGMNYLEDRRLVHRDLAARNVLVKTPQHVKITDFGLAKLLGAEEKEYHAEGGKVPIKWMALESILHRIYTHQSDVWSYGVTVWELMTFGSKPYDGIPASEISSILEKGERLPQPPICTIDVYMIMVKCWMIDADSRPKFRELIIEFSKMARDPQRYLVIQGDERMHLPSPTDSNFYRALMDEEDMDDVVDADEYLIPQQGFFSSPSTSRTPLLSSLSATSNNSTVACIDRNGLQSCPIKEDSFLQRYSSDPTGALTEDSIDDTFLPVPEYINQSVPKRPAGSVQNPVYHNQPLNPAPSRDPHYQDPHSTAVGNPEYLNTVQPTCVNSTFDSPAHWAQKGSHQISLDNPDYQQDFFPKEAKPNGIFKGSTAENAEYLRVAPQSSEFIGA

Row | Compound | IC50 [2] [nM] | IC50 (MCF7) [µg/mL] | IC50 (A2780DDP) [µg/mL] | IC50 (SW620) [µg/mL] | IC50 (A431) [µg/mL] | IC50 (A2780S) [µg/mL] | IC50 (LOX) [µg/mL] | IC50 (MB435) [µg/mL] | IC50 (SKBR3) [µg/mL] | IC50 [4] [nM] | %T/C Day 16 ([1]; 10 mg/kg/dose PO (footnote: IP)) [%] | %T/C Day 16 ([1]; 20 mg/kg/dose PO (footnote: IP)) [%] | %T/C Day 16 ([1]; 40 mg/kg/dose PO (footnote: IP)) [%] | S/T (No. Survivors/No. Treated on Day +28 post tumor staging) ([3]; Table 5: 40 PO, days 1 through 10) | %T/C Day 7 ([3]; Table 5: 40 PO, days 1 through 10, Day 7) [%] | %T/C Day 14 ([3]; Table 5: 40 PO, days 1 through 10, Day 14) [%] | %T/C Day 21 ([3]; Table 5: 40 PO, days 1 through 10, Day 21) [%] | %T/C Day 28 ([3]; Table 5: 40 PO, days 1 through 10, Day 28) [%] | inhibition of tumor growth in vivo (result in words) ([3]; summary of the results of TABLE 4 / TABLE 5)
1 | CN(C)CC#CC(=O)Nc1ccc2ncnc(Nc3cccc(Br)c3)c2c1 [Example 21, 4-Dimethylamino-but-2-ynoic acid [4-(3-bromo-phenylamino)-quinazolin-6-yl]-amide] | – | – | – | – | – | – | – | – | – | – | 56 | 82 | 84 | – | – | – | – | – | –
2 | CCN(CC)CC#CC(=O)Nc1ccc2ncnc(Nc3cccc(Br)c3)c2c1 [Example 25, 4-Diethylamino-but-2-ynoic acid [4-(3-bromo-phenylamino)-quinazolin-6-yl]-amide] | 14 | 0.74 (≈ 1.64 µM) | 0.04 (≈ 0.0884 µM) | 0.07 (≈ 0.155 µM) | 0.06 (≈ 0.133 µM) | 0.04 (≈ 0.0884 µM) | 0.1 (≈ 0.221 µM) | 0.05 (≈ 0.111 µM) | 0.004 (≈ 0.00884 µM) | – | – | – | – | 4/5 | 71 | 33 | 40 | 52 | effective inhibitor of tumor growth in vivo
3 | CCOc1c(Nc2ccc3ncnc(Nc4cccc(Br)c4)c3c2)c(=O)c1=O [Example 48, 3-[4-(3-Bromo-phenylamino)-quinazolin-6-ylamino]-4-ethoxy-cyclobut-3-ene-1,2-dione] | 2 | 5.42 (≈ 12.3 µM) | 3.71 (≈ 8.45 µM) | 2.81 (≈ 6.4 µM) | 3.11 (≈ 7.08 µM) | 4.74 (≈ 10.8 µM) | 3.55 (≈ 8.08 µM) | 5.48 (≈ 12.5 µM) | 3.79 (≈ 8.63 µM) | – | – | – | – | – | – | – | – | – | –
4 | CNc1c(Nc2ccc3ncnc(Nc4cccc(Br)c4)c3c2)c(=O)c1=O [Example 50, 3-[4-(3-Bromo-phenylamino)-quinazolin-6-ylamino]-4-methylamino-cyclobut-3-ene-1,2-dione] | 0.4 | > 100 | > 100 | > 100 | > 100 | > 100 | > 100 | > 100 | > 100 | – | – | – | – | – | – | – | – | – | –
5 | Nc1c(Nc2ccc3ncnc(Nc4cccc(Br)c4)c3c2)c(=O)c1=O [Example 51, 3-Amino-4-[4-(3-bromo-phenylamino)-quinazolin-6-ylamino]-cyclobut-3-ene-1,2-dione] | 7 | > 100 | 6.92 (≈ 16.9 µM) | > 100 | 6.84 (≈ 16.7 µM) | 56.9 (≈ 139 µM) | 56.5 (≈ 138 µM) | > 100 | 6.21 (≈ 15.1 µM) | – | – | – | – | – | – | – | – | – | –
6 | C=C(CNc1ccc2ncnc(Nc3cccc(Br)c3)c2c1)C(=O)OC [Example 59, 2-{[4-(3-Bromo-phenylamino)-quinazolin-6-ylamino]-methyl)-acrylic acid methyl ester] | – | 1.58 (≈ 3.82 µM) | 0.603 (≈ 1.46 µM) | 0.581 (≈ 1.41 µM) | 0.315 (≈ 0.762 µM) | 0.424 (≈ 1.03 µM) | 0.482 (≈ 1.17 µM) | – | – | 1.26 | – | – | – | – | – | – | – | – | –
7 | COC(=O)/C=C/CNc1ccc2ncnc(Nc3cccc(Br)c3)c2c1 [Example 60, (E)-4-[4-(3-Bromo-phenylamino)-quinazolin-6-ylamino]-but-2-enoicacid methyl ester] | – | 0.566 (≈ 1.37 µM) | 0.626 (≈ 1.51 µM) | 1.89 (≈ 4.57 µM) | 0.35 (≈ 0.847 µM) | 0.749 (≈ 1.81 µM) | 0.725 (≈ 1.75 µM) | – | – | 34 | – | – | – | – | – | – | – | – | –

Now from value to compound, other results behind:

Row | IC50 [2] [nM] | IC50 (MCF7) [µg/mL] | IC50 (A2780DDP) [µg/mL] | IC50 (SW620) [µg/mL] | IC50 (A431) [µg/mL] | IC50 (A2780S) [µg/mL] | IC50 (LOX) [µg/mL] | IC50 (MB435) [µg/mL] | IC50 (SKBR3) [µg/mL] | IC50 [4] [nM] | Compound | %T/C Day 16 ([1]; 10 mg/kg/dose PO (footnote: IP)) [%] | %T/C Day 16 ([1]; 20 mg/kg/dose PO (footnote: IP)) [%] | %T/C Day 16 ([1]; 40 mg/kg/dose PO (footnote: IP)) [%] | S/T (No. Survivors/No. Treated on Day +28 post tumor staging) ([3]; Table 5: 40 PO, days 1 through 10) | %T/C Day 7 ([3]; Table 5: 40 PO, days 1 through 10, Day 7) [%] | %T/C Day 14 ([3]; Table 5: 40 PO, days 1 through 10, Day 14) [%] | %T/C Day 21 ([3]; Table 5: 40 PO, days 1 through 10, Day 21) [%] | %T/C Day 28 ([3]; Table 5: 40 PO, days 1 through 10, Day 28) [%] | inhibition of tumor growth in vivo (result in words) ([3]; summary of the results of TABLE 4 / TABLE 5)
8 | 100 | 6.72 (≈ 15.3 µM) | 3.16 (≈ 7.21 µM) | 3.61 (≈ 8.24 µM) | 2.83 (≈ 6.46 µM) | 4.81 (≈ 11 µM) | 3.48 (≈ 7.94 µM) | 5.2 (≈ 11.9 µM) | 3.57 (≈ 8.15 µM) | – | CN(C)c1c(Nc2ccc3ncnc(Nc4cccc(Br)c4)c3c2)c(=O)c1=O [Example 49, 3-[4-(3-Bromo-phenylamino)-quinazolin-6-ylamino]-4-dimethylamino-cyclobut-3-ene-1,2-dione] | – | – | – | – | – | – | – | – | –
9 | 2 | 5 (≈ 11 µM) | 0.5 (≈ 1.1 µM) | 0.1 (≈ 0.22 µM) | 0.4 (≈ 0.879 µM) | 0.02 (≈ 0.0439 µM) | 0.2 (≈ 0.439 µM) | 2.8 (≈ 6.15 µM) | 0.3 (≈ 0.659 µM) | – | COCCOCC#CC(=O)Nc1ccc2ncnc(Nc3cccc(Br)c3)c2c1 [Example 55, 4-(2-Methoxy-ethoxy)-but-2-ynoic acid [4-(3-bromo-phenylamino)-quinazolin-6-yl]-amide] | – | – | – | – | – | – | – | – | –
10 | 8 | 8.7 (≈ 19.7 µM) | 2.5 (≈ 5.67 µM) | 1.8 (≈ 4.08 µM) | 2.8 (≈ 6.35 µM) | 0.7 (≈ 1.59 µM) | 0.9 (≈ 2.04 µM) | 5.7 (≈ 12.9 µM) | 1.2 (≈ 2.72 µM) | – | COCOCC#CC(=O)Nc1ccc2ncnc(Nc3cccc(Br)c3)c2c1 [Example 57, 4-Methoxymethoxy-but-2-ynoic acid [4-(3-bromo-phenylamino)-quinazolin-6-yl]-amide] | – | – | – | – | – | – | – | – | –
11 | 80 | 3.62 (≈ 10.5 µM) | 1.39 (≈ 4.02 µM) | 0.43 (≈ 1.24 µM) | 0.73 (≈ 2.11 µM) | 1.86 (≈ 5.38 µM) | 0.5 (≈ 1.45 µM) | 4.35 (≈ 12.6 µM) | 0.04 (≈ 0.116 µM) | – | CC#CC(=O)Nc1ccc2ncnc(Nc3cccc(N(C)C)c3)c2c1 [Example 61, But-2-ynoic acid [4-(3-dimethylamino-phenylamino)-quinazolin-6-yl]-amide] | – | – | – | – | – | – | – | – | –

From patent publication EP1000039B1 (Wyeth Holdings Corporation, priority 1997, dated 1999)
